{
  "source": "patent US20230127944A1",
  "about": "“BROAD-SPECTRUM CARBAPENEMS” (priority 2019, published 2023)",
  "test_system": "P. aeruginosa 35151 (hyper-permeable strain)",
  "test": "broth microdilution MIC assay, P. aeruginosa 35151",
  "type": "cell-based",
  "conditions": "Pseudomonas aeruginosa, read-out: MIC, P. aeruginosa 35151",
  "summary_of_the_method": "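Growth inhibition was measured by CLSI-based broth microdilution. Log-phase cultures in Mueller-Hinton broth with divalent cations were seeded at 5×10^5 CFU/mL into 2-fold serial compound dilutions and incubated 16-20 hours at 37° C before the MIC was scored by eye.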",
  "data": [
    {"smiles": "C[C@@H](O)[C@H]1C(=O)N2C(C(=O)O)=C(S[C@@H]3CCN(C[C@H]4CC[C@H](NC(=N)N)CC4)C3)[C@H](C)[C@H]12", "note": "[Example 28, (4R,5S,6S)-3-(((R)-1-(((1R,4R)-4-guanidinocyclohexyl)methyl)pyrrolidin-3-yl)thio)-6-((R)-1-hydroxyethyl)-4-methyl-7-oxo-1-azabicyclo[3.2.0]hept-2-ene-2-carboxylic acid]", "values": [
      {"measurement": "MIC", "value": "< 1", "unit": "µg/mL"}
    ]}
  ]
}
